According to patent publication US20190307771A1, “METHODS AND COMPOSITIONS FOR THE TREATMENT OF CANCER AND METABOLIC DISEASES” (THE REGENTS OF THE UNIVERSITY OF CALIFORNIA, priority 2016, published 2019):
“Also recorded” adds a separate entry of the source. Read-outs that look alike come from different tables or passages of the source.

What was measured:
[1] = test system: CYCLIN A2, HDAC1, HDAC4, SIRT1; assay: Protein levels in Huh7 liver cancer cells; conditions: liver Huh7 cells
[2] = test system: HDAC1, HDAC4, SIRT1, cyclin A2 (CCNA2); assay: Western blot of protein deacetylases and cyclin A2 in HCT116 cells; assay type: cell-based; conditions: colon HCT116 cells; CDCA treatment or miR-22 mimic transfection
Protocol: HCT116 cells were transfected with either an miR-22 mimic or a scramble control, and 48 hours later the protein levels of HDAC4, SIRT1, and cyclin A2 were measured (FIG. 3B). The expression of all three proteins was reduced by treatment with the miR-22 mimic.
(§1) Western blot and immunoprecipitation were performed as described previously^22. Specific antibodies used included anti-NUR77, RARβ, SIRT1, β-actin, and IgG (Santa Cruz Biotechnology, Santa Cruz, Calif.), phospho-JNK1/2, total JNK1/2, cleaved caspase3, HDAC1 and HDAC4 (Cell Signaling Technology, Beverly, Mass.), and CCNA2 (Novus Biologicals, Littleton, Colo.). To detect protein acetylation of NUR77 and RARβ, cell lysates (500 μg) were incubated with anti-NUR77, RARβ, or IgG antibody (1 μg), precipitated by adding Dynabeads (30 μl, Life Technologies, Carlsbad, Calif.), and probed with anti-Acetyl-lysine antibody (Cell Signaling Technology, Beverly, Mass.). To study the interaction between RARβ and NUR77, whole-cell lysates were precipitated with anti-RARβ or NUR77 antibody followed by Western blot using anti-NUR77 or RARβ antibody.

miR-22 [3] = conditions: published data, cited from earlier work
miR-22 [4] = assay: miR-22 expression in HCT116 cells (qRT-PCR); assay type: cell-based; conditions: 24 hours, RA 10 μM, butyrate 5 mM, propionate 10 mM, valerate 10 mM, SAHA 5 μM
Protocol: To study the effect of RA and HDAC inhibitors on miR-22 expression, HCT116 cells were treated with RA, butyrate, propionate, valerate, and SAHA. The SCFA concentrations used were within physiologic ranges^35.
(§2) Total RNA was extracted with TRIzol Reagent (Invitrogen, Carlsbad, Calif.), and cDNA was generated using High Capacity RNA-to-cDNA Kit (Applied Biosystems, Carlsbad, Calif.). qRT-PCR was performed on ABI 7900HT Fast Real time PCR system using Power SYBR® Green PCR Master Mix (Applied Biosystems, Carlsbad, Calif.).

RARB and NUR77 genes = assay: ChIP-qPCR: HDAC recruitment and H3K9 acetylation at RARB and NUR77 genes in HCT116 cells; assay type: cell-based; conditions: RA 10 μM, butyrate 5 mM, SAHA 5 μM; for H3K9 acetylation of NUR77 and RARβ genes (ChIP-qPCR) / Recruitment of HDAC1, HDAC4, and SIRT1 to the regulatory region of NUR77 and RARβ (ChIP-qPCR): 24 hours
Protocol: Cell lysates were used for ChIP with antibodies specific for HDAC1, HDAC4, SIRT1, or acetylated H3K9, followed by qPCR using primers specific for the RARB and NUR77 genes. DMSO treated cells and IP using IgG were included as negative controls. […]inding was expressed relative to the IgG negative controls.
(§3) Chromatin immunoprecipitation (ChIP)-qPCR ChIP-qPCR was performed as described previously^21. Briefly, chromatin lysate was precleared before incubation with an anti-H3K9AC antibody (Millipore. Billerica, Mass.), anti-HDAC1 and anti-HDAC4 (Cell signaling technology, Beverly, Mass.) or anti-SIRT1 antibody (Santa Cruz Biotechnology, Santa Cruz, Calif.). IgG (Santa Cruz Biotechnology, Santa Cruz, Calif.) and RNA Polymerase II antibody (Millipore, Billerica, Mass.) were used as negative and positive controls, respectively. Samples were incubated with Dynase beads at 4° C. overnight followed by de-crosslinking and purification. DNA fragments generated served as templates for qPCR using Power SYBR1 Green PCR Master Mix.

[5] = test system: retinoic acid receptor beta (RARβ); assay: RARB expression in HCT116 cells (qRT-PCR); assay type: cell-based; conditions: 24 hours, RA 10 μM, butyrate 5 mM, SAHA 5 μM
Protocol: as §2

[6] = test system: HCT116 colon cancer cells; assay: MTT cell viability assay in HCT116 cells; assay type: cell-based; conditions: RA 10 μM, butyrate 5 mM, SAHA 5 μM; for Cell viability (MTT assay): 24 hours; for Cell viability: 48 hours, propionate 10 mM, valerate 10 mM, vs. DMSO
Protocol: Cell viability was monitored by MTT assay.
HCT116 cells (American Type Culture Collection) were maintained in McCoy's 5a medium from Gibco (Life Technologies, Carlsbad, Calif.) with 10% FBS. Cells were plated (1×10^6 cells per 60-mm dish, 2×10^5 cells per 6-well plates, and 1×10^5 cells per 24-well plates) overnight prior to treatment or transfection.
Cells were stained with 3-(4,5-dimethylthiazol-2-O-2,5-diphenyltetrazolium bromide (MTT, Sigma-Aldrich, St. Louis, Mo.) and measured at 570 nm with Microplate Reader (Biotek, Winooski, Vt.).

NUR77 = assay: ChIP-qPCR and RT-PCR: NUR77 binding to BRE and CCND2 and their mRNA; assay type: cell-based; conditions: HCT116 cells
Protocol: (§4) NUR77 and RARβ acetylation status was also studied because protein acetylation alters nuclear receptor activity^37. […] To study the effect of RA/butyrate in modulating NUR77 and RARβ transcriptional activity, ChIP-qPCR and RT-PCR were performed to determine receptor binding to transcriptional regulatory regions and mRNA levels of downstream targets, respectively.
as §3

NUR77 and RARβ [7] = assay: Induction and localization of NUR77 and RARβ in HCT116 cells; assay type: cell-based; conditions: 48 hours, RA 10 μM, butyrate 5 mM, SAHA 5 μM, EGF 32 nM
Protocol: Proteins were immunoprecipitated by anti-NUR77 or anti-RARβ antibodies, or IgG, followed by Western blot using anti-RARβ or anti-NUR77 antibodies.
To study the effect of miR-22 in induction of cytosolic NUR77 by RA/butyrate, adenoviral-delivery of miR-22 inhibitors tagged with green fluorescence (adeno-miR-22 inhibitor-GFP, Applied Biological Materials Inc, Richond, BC) were used to infect HCT116 cells. At 48 hours post adenoviral infection, cells were treated with RA (10 μM) plus butyrate (5 mM) or DMSO for 24 hours. […] Cells were mounted in ProLong® Gold Antifade Reagent with DAPI (4′,6-diamidino-2-phenylindole, Life Technologies, Carlsbad, Calif.) and imaged under Keyence BZ-9000 microscope.

[8] = test system: HDAC1, HDAC4, SIRT1, cyclin A2 (CCNA2); assay: Western blot of protein deacetylases and cyclin A2 in HCT116 cells; assay type: cell-based; conditions: 24 hours, RA 10 μM, butyrate 5 mM, SAHA 5 μM
RARβ = assay: ChIP-qPCR: RARβ binding to DR5 motif upstream of RARβ and CYP26A1 genes; assay type: cell-based; conditions: HCT116 cells
Protocol: as §4, §3

NUR77 and RARβ [9] = assay: Immunoprecipitation/Western blot: protein acetylation of NUR77 and RARβ; assay type: cell-based; conditions: HCT116 cells; IP with anti-NUR77 or anti-RARβ, anti-acetyl lysine blot
From the text: FIG. 12A depicts the expression levels of proteins that were extracted from HCT116 cells and immunoprecipitated by anti-NUR77 and RARβ antibodies or IgG, followed by Western blot using an anti-acetyl lysine antibody. […] The mRNA levels of NUR77 target genes BRE as well as CCND2 and RARβ target genes RARβ and CYP26A1 in HCT116 cells are shown in FIG. 12C.
as §4, §1

[10] = test system: Class I (HDAC1, 2, 3, and 8) and Class IIa (HDAC4, 5, 7, and 9); conditions: cited from earlier work
[11] = test system: Gpr41, Gpr43, Gpr109a, Pgc1α, Pepck, Fas; assay: Ileal and hepatic mRNA levels in mice after oral gavage; assay type: in vivo, C57BL/6 mice; conditions: RA 15 mg/kg and/or butyrate 500 mg/kg, oral gavage every other day for one week

SMILES | CYCLIN A2 levels [1] | CYCLIN A2 levels [2] | miR-22 induction (miR-22 [3]) | miR-22 induction (miR-22 [3]; listed as chenodeoxycholic acid) | miR-22 expression level (miR-22 [4]) | H3K9 acetylation of NUR77 and RARβ genes (ChIP-qPCR) (RARB and NUR77 genes) | Recruitment of HDAC1, HDAC4, and SIRT1 to the regulatory region of NUR77 and RARβ (ChIP-qPCR) (RARB and NUR77 genes) | Histone acetylation (H3K9Ac) in the gene encoding RARβ (ChIP-qPCR) (RARB and NUR77 genes) | Recruitment of HDAC4 and SIRT1 to the RARB gene (ChIP-qPCR) (RARB and NUR77 genes) | RARB (RARβ) expression / transcription [5] | Cell viability (MTT assay) [6] | Cell viability [6] | NUR77 binding to BRE and CCND2 promoter regions and their mRNA levels (NUR77 transcriptional activity) (NUR77) | Induction and localization of NUR77 and RARβ (immunostaining) (NUR77 and RARβ [7]) | Protein levels of HDAC1, HDAC4, SIRT1, and cyclin A2 (CCNA2) [8] | Increase of RARβ binding to the DR5 motif upstream of RARβ and CYP26A1 genes (RARβ) | Acetylated NUR77 and RARβ (NUR77 and RARβ [9]) | Inhibition of HDAC classes [10] | Expression of Gpr41 and Gpr43 [11] | Expression of Gpr109a [11]
C[C@H](CCC(=O)O)[C@H]1CC[C@H]2[C@@H]3[C@H](O)C[C@@H]4C[C@H](O)CC[C@]4(C)[C@H]3CC[C@]12C [CDCA, chenodeoxycholic acid] | reduced CYCLIN A2 levels; also recorded: repression of cyclin A2 | reduced CYCLIN A2 levels; also recorded: repression of cyclin A2 | induces miR-22 | induce miR-22 |  |  |  |  |  |  |  |  |  |  |  |  |  |  |  | 
O=C(CCCCCCC(=O)Nc1ccccc1)NO [SAHA, suberanilohydroxamic acid] |  |  |  |  | upregulated; also recorded: could induce miR-22; also recorded: induced; also recorded: increased miR-22 level | increased H3K9 acetylation | decreased recruitment of HDAC1, HDAC4, and SIRT1 | increased histone acetylation | reduced the recruitment of HDAC4 and SIRT1 | upregulated | reduced cell viability | significantly reduced cell viability; also recorded: Markedly reduced cell viability | reduced NUR77 binding | markedly induced NUR77 and RARβ | reduced HDAC1, HDAC4, SIRT1, and CCNA2 protein levels | 2.5 folds | increased acetylated NUR77 and RARβ |  |  | 
CCCC(=O)[O-].[Na+] [butyrate, sodium butyrate] |  |  |  |  | upregulated; also recorded: induce miR-22; also recorded: induced; also recorded: increased miR-22 level | increased H3K9 acetylation | decreased recruitment of HDAC1, HDAC4, and SIRT1 | increased histone acetylation | reduced the recruitment of HDAC4 and SIRT1; also recorded: decreased the recruitment of HDAC4 and SIRT1 | upregulated | reduced cell viability | Markedly reduced cell viability | reduced NUR77 binding | markedly induced NUR77 and RARβ | reduced HDAC1, HDAC4, SIRT1, and CCNA2 protein levels | 4 folds | only increased acetylated NUR77 | inhibit Class I (HDAC1, 2, 3, and 8) and Class IIa (HDAC4, 5, 7, and 9) | could induce the expression | induced Gpr109a
CCC(=O)[O-].[Na+] [propionate, sodium propionate] |  |  |  |  | induced; also recorded: increased miR-22 level |  |  |  |  |  |  | Markedly reduced cell viability |  |  |  |  |  |  |  | 
